Values joined by “and” are separate entries in the source; they are usually repeats but may differ in a detail not shown here. Identical values can stand only once.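 How tested: cells in 96-well plates exposed to compound for 48 hours at five concentrations. Abbreviation: GI50, concentration required for 50% inhibition of growth. TGI marks complete inhibition of growth.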
Tests used:
Test in all cases: NCI-60 cell line screen, 48 h
SF-268 CNS = system: SF-268 CNS
RXF 393 renal = system: RXF 393 renal
SK-OV-3 ovarian = system: SK-OV-3 ovarian
HOP-92 NSCLC = system: HOP-92 NSCLC
UACC-257 melanoma = system: UACC-257 melanoma
NCI/ADR-RES ovarian = system: NCI/ADR-RES ovarian
OVCAR-8 ovarian = system: OVCAR-8 ovarian
SF-295 CNS = system: SF-295 CNS
SK-MEL-2 melanoma = system: SK-MEL-2 melanoma
SK-MEL-28 melanoma = system: SK-MEL-28 melanoma

COc1cc2ncnc(Oc3cccc(NC(=O)Nc4cc(C(C)(C)C(F)(F)F)on4)c3)c2cc1OC
GI50 (SF-268 CNS): 2.59 µM and 2.69 µM
TGI (SF-268 CNS): 17.4 µM and > 10 µM
GI50 (RXF 393 renal): 2.16 µM and 2.68 µM
TGI (RXF 393 renal): 8.14 µM and > 10 µM
GI50 (SK-OV-3 ovarian): 0.612 µM and 0.962 µM
TGI (SK-OV-3 ovarian): 3.52 µM and 4.82 µM
GI50 (HOP-92 NSCLC): 0.571 µM and 1.13 µM
TGI (HOP-92 NSCLC): 3.41 µM and 5.29 µM
GI50 (UACC-257 melanoma): 0.132 µM and 0.235 µM
TGI (UACC-257 melanoma): 1.08 µM and 3.58 µM
GI50 (NCI/ADR-RES ovarian): 2.99 µM and 2.86 µM
TGI (NCI/ADR-RES ovarian): 24.6 µM and > 10 µM
GI50 (OVCAR-8 ovarian): 2.54 µM and 3.09 µM
TGI (OVCAR-8 ovarian): 21.5 µM and > 10 µM
GI50 (SF-295 CNS): 2.91 µM and 2.98 µM
TGI (SF-295 CNS): 13.1 µM and > 10 µM
GI50 (SK-MEL-2 melanoma): 0.443 µM and 0.565 µM
TGI (SK-MEL-2 melanoma): 2.26 µM and 3.06 µM
GI50 (SK-MEL-28 melanoma): 0.179 µM and 0.201 µM
TGI (SK-MEL-28 melanoma): 8.03 µM and 3.58 µM

CCOC(=O)[C@@H]1CSC(CC)=C(C(=O)O)N1
GI50 (SF-268 CNS): > 100 µM
TGI (SF-268 CNS): > 100 µM
GI50 (RXF 393 renal): > 100 µM
TGI (RXF 393 renal): > 100 µM
GI50 (SK-OV-3 ovarian): > 100 µM
TGI (SK-OV-3 ovarian): > 100 µM
GI50 (HOP-92 NSCLC): > 100 µM
TGI (HOP-92 NSCLC): > 100 µM
GI50 (UACC-257 melanoma): > 100 µM
TGI (UACC-257 melanoma): > 100 µM
GI50 (NCI/ADR-RES ovarian): > 100 µM
TGI (NCI/ADR-RES ovarian): > 100 µM
GI50 (OVCAR-8 ovarian): > 100 µM
TGI (OVCAR-8 ovarian): > 100 µM
GI50 (SF-295 CNS): > 100 µM
TGI (SF-295 CNS): > 100 µM
GI50 (SK-MEL-2 melanoma): > 100 µM
TGI (SK-MEL-2 melanoma): > 100 µM
GI50 (SK-MEL-28 melanoma): > 100 µM
TGI (SK-MEL-28 melanoma): > 100 µM

C#C[C@]1(O)CC[C@H]2[C@@H]3CC=C4c5nc(N)sc5CC[C@]4(C)[C@H]3CC[C@@]21C
GI50 (SF-268 CNS): 3.57 µM
TGI (SF-268 CNS): 16.5 µM
GI50 (RXF 393 renal): 1.81 µM
TGI (RXF 393 renal): 3.72 µM
GI50 (SK-OV-3 ovarian): 3.5 µM
TGI (SK-OV-3 ovarian): 10.5 µM
GI50 (HOP-92 NSCLC): 3.7 µM
TGI (HOP-92 NSCLC): 19.5 µM
GI50 (UACC-257 melanoma): 2.36 µM
TGI (UACC-257 melanoma): 6.86 µM
GI50 (NCI/ADR-RES ovarian): 3.19 µM
TGI (NCI/ADR-RES ovarian): 16 µM
GI50 (OVCAR-8 ovarian): 9.12 µM
TGI (OVCAR-8 ovarian): 56.1 µM
GI50 (SF-295 CNS): 1.98 µM
TGI (SF-295 CNS): 4.05 µM
GI50 (SK-MEL-2 melanoma): 2.72 µM
TGI (SK-MEL-2 melanoma): 7.57 µM
GI50 (SK-MEL-28 melanoma): 1.9 µM
TGI (SK-MEL-28 melanoma): 4.67 µM

CC1(C)N=C(N)N=C(N)N1c1cccc(CCc2ccccc2)c1
GI50 (SF-268 CNS): 0.34 µM
TGI (SF-268 CNS): 57.5 µM
GI50 (RXF 393 renal): 3.82 µM
TGI (RXF 393 renal): > 100 µM
GI50 (SK-OV-3 ovarian): 5.5 µM
TGI (SK-OV-3 ovarian): > 100 µM
GI50 (HOP-92 NSCLC): 2.65 µM
TGI (HOP-92 NSCLC): 34.4 µM
GI50 (UACC-257 melanoma): 0.533 µM
TGI (UACC-257 melanoma): 32.5 µM
GI50 (NCI/ADR-RES ovarian): > 100 µM
TGI (NCI/ADR-RES ovarian): > 100 µM
GI50 (OVCAR-8 ovarian): 0.634 µM
TGI (OVCAR-8 ovarian): > 100 µM
GI50 (SF-295 CNS): 0.604 µM
TGI (SF-295 CNS): > 100 µM
GI50 (SK-MEL-2 melanoma): 1.94 µM
TGI (SK-MEL-2 melanoma): > 67.5 µM
GI50 (SK-MEL-28 melanoma): 1.04 µM
TGI (SK-MEL-28 melanoma): > 68.9 µM

CSC1=Nc2c(c(C)c(-c3ccccc3)n2COC(CO)CO)C2=NC(=O)CC(C)N12 (stereo not given)
GI50 (SF-268 CNS): > 100 µM
TGI (SF-268 CNS): > 100 µM
GI50 (RXF 393 renal): > 100 µM
TGI (RXF 393 renal): > 100 µM
GI50 (SK-OV-3 ovarian): > 100 µM
TGI (SK-OV-3 ovarian): > 100 µM
GI50 (HOP-92 NSCLC): > 100 µM
TGI (HOP-92 NSCLC): > 100 µM
GI50 (UACC-257 melanoma): > 100 µM
TGI (UACC-257 melanoma): > 100 µM
GI50 (NCI/ADR-RES ovarian): > 100 µM
TGI (NCI/ADR-RES ovarian): > 100 µM
GI50 (OVCAR-8 ovarian): > 100 µM
TGI (OVCAR-8 ovarian): > 100 µM
GI50 (SF-295 CNS): > 100 µM
TGI (SF-295 CNS): > 100 µM
GI50 (SK-MEL-2 melanoma): > 100 µM
TGI (SK-MEL-2 melanoma): > 100 µM
GI50 (SK-MEL-28 melanoma): > 100 µM
TGI (SK-MEL-28 melanoma): > 100 µM

Nn1c(-c2ccc(Cl)cc2)nc2c(-c3ccc(Cl)cc3)nc3ccc(Cl)cc3c2c1=O
GI50 (SF-268 CNS): 5.18 µM
TGI (SF-268 CNS): 72.3 µM
GI50 (RXF 393 renal): 11.8 µM
TGI (RXF 393 renal): 30.9 µM
GI50 (SK-OV-3 ovarian): 14.5 µM
TGI (SK-OV-3 ovarian): 40.3 µM
GI50 (HOP-92 NSCLC): 13.6 µM
TGI (HOP-92 NSCLC): 31.6 µM
GI50 (UACC-257 melanoma): 25.2 µM
TGI (UACC-257 melanoma): > 100 µM
GI50 (NCI/ADR-RES ovarian): 48.3 µM
TGI (NCI/ADR-RES ovarian): > 100 µM
GI50 (OVCAR-8 ovarian): 7.58 µM
TGI (OVCAR-8 ovarian): 95.2 µM
GI50 (SF-295 CNS): 13.3 µM
TGI (SF-295 CNS): 34.4 µM
GI50 (SK-MEL-2 melanoma): 25.2 µM
TGI (SK-MEL-2 melanoma): > 100 µM
GI50 (SK-MEL-28 melanoma): 49.6 µM
TGI (SK-MEL-28 melanoma): > 100 µM

COc1cc(-c2nn(-c3cccc(NC(=O)CCN4CCN(c5ccccc5)CC4)c3)cc2-c2ccncc2)ccc1Cl
GI50 (SF-268 CNS): 3.56 µM
TGI (SF-268 CNS): > 100 µM
GI50 (RXF 393 renal): 1.91 µM
TGI (RXF 393 renal): 5.18 µM
GI50 (SK-OV-3 ovarian): 4.27 µM
TGI (SK-OV-3 ovarian): > 100 µM
GI50 (HOP-92 NSCLC): 2.92 µM
TGI (HOP-92 NSCLC): 19.5 µM
GI50 (UACC-257 melanoma): 5.29 µM
TGI (UACC-257 melanoma): 95.5 µM
GI50 (NCI/ADR-RES ovarian): 3.18 µM
TGI (NCI/ADR-RES ovarian): > 100 µM
GI50 (OVCAR-8 ovarian): 4.5 µM
TGI (OVCAR-8 ovarian): > 100 µM
GI50 (SF-295 CNS): 2.41 µM
TGI (SF-295 CNS): 18 µM
GI50 (SK-MEL-2 melanoma): 2.45 µM
TGI (SK-MEL-2 melanoma): 6.85 µM
GI50 (SK-MEL-28 melanoma): 3.19 µM
TGI (SK-MEL-28 melanoma): > 100 µM

From PubChem BioAssay (NCI)
